{"source": "patent US4748179A", "about": "“β-carbolin-3-carboxylic acid derivatives and their use as benzodiazepine antagonists” (Schering Aktiengesellschaft, priority 1983, dated 1988)", "key": {"benzodiazepine receptors [1]": {"system": "benzodiazepine receptors", "assay": "In vivo displacement of 3H-flunitrazepam binding to benzodiazepine receptors in living brain", "details": "mice, usually subcutaneously, 3H-flunitrazepam i.v. 15 minutes later", "from_the_text": "The pharmaceutical properties of the compounds of the invention have been investigated by determining their capability for displacing radioactively labelled flunitrazepam from such benzodiazepine receptors, and their ability to antagonize pentazole induced convulsions.\nThe displacement activity of the compounds of the invention has been determined by determining the IC50 value and ED50 value.\nThe ED50 value represents the dose (mg/kg) of a test substance which causes the specific binding of flunitrazepam to benzodiazepine receptors in a living brain to be reduced to 50% of the control value. Such an in vivo test is carried out as follows:\nGroups of mice are injected with the test substance at different doses and usually subcutaneously. 15 minutes later ^3 H-flunitrazepam is giving intravenously to the mice and after further 20 minutes the mice are killed, […]. The ED50 value is determined from dose-response curves."}, "benzodiazepine receptors [2]": {"target": "benzodiazepine receptors", "assay": "Displacement of 3H-flunitrazepam specific binding in vitro, rat forebrain membrane suspension", "details": "3H-flunitrazepam 1.0 nM, 0° C., pH 7.1"}, "[3]": {"assay": "Inhibition of motor coordination (ataxia)", "assay_type": "in vivo", "details": "mouse, sc, mice, 30 minutes after subcutaneous administration, read-out: Inhibition of/Ataxia (motor-incoordination)", "method": "The inhibition of motor coordination in mice was also studied 30 minutes after subcutaneous administration in accordance with a method described in the litterature (Buus Lassen et al., Acta Pharmacol. et Toxicol., 1971, 39, 1-16)."}, "[4]": {"system": "pentazole-induced convulsions", "assay": "Antagonism of pentazole-induced convulsions", "assay_type": "in vivo", "details": "ip; read-out: Antagonism of pentazole-induced convulsions ED50 i.p.", "from_the_text": "The antagonism of pentazole induced convulsions was investigated.\nThe test has been performed according to known test models in pharmacology,e.g., as described in R. A. Turner, Screening Methods in Pharmacology, Academic Press, N.Y. and London 1965, esp. p. 164 ff. or Woodbury, P. M., Perry, I. K. and Schmidt, R. P. Antiepileptic Drugs, Raven Press, N.Y. 1972."}, "[5]": {"system": "lorazepam-induced ataxia in NMRI mice", "assay": "Antagonism of benzodiazepine (lorazepam) action in motor incoordination, rotating rod", "assay_type": "in vivo", "method": "Antagonism of benzodiazepine action in motor incoordination.\nNMRI mice (20-25 g) were placed on a horizontal wooden rod (diameter 4.3 cm), rotating at a rate of 6 min^-1, 8 cm above the bench. […] The ability of the compounds of this invention to antagonize the effect of benzodiazepine in motor coordination has been determined by determining the ED50 -value. […] The test was performed as follows:\nAt least 3 groups of mice (8 mice in each group) were injected intraperitoneally with 2 mg/kg lorazepam. 15 minutes later each group of mice were injected with different doses of the test compounds and after further 15 minutes the test for ataxia was performed. Based on the data obtained the ED50 -value was calculated."}, "[6]": {"system": "pentazole-induced seizures in diazepam-treated NMRI mice", "assay": "Antagonism of benzodiazepine (diazepam) action on pentazole-induced seizures", "assay_type": "in vivo", "details": "i.p., against 5 mg/kg diazepam i.p.; pentazole 150 mg/kg s.c.; clonic seizures in 50% of animals", "procedure": "Antagonism of Benzodiazepine action on pentazol-induced seizures in NMRI mice (20-25 g).\n15 minutes later each group of mice were injected intraperitoneally with different doses of the test compounds and after further 15 minutes the mice received 150 mg/kg pentazol, administered subcutaneously. Clonic seizures within the next 30 minutes were noted. Based on the data obtained the ED50 value was calculated."}}, "data": [{"smiles": "CCOC(=O)c1cc2c(cn1)[nH]c1cccc(OC(C)C)c12", "note": "[(CH3)2 CH, H, 5-Isopropoxy-β-carboline-3-carboxylic acid ethylester]", "values": [{"measurement": "3H-flunitrazepam binding in vivo ED50", "setting": "benzodiazepine receptors [1]", "result": 6.4, "unit": "mg/kg"}, {"measurement": "3H-flunitrazepam binding in vitro IC50", "setting": "benzodiazepine receptors [2]", "result": 0.4, "unit": "ng/mL"}, {"measurement": "ED50 at 0.5 h", "setting": "[3]", "result": "> 100", "unit": "mg/kg"}, {"measurement": "ED50", "setting": "[4]", "result": "> 100", "unit": "mg/kg"}]}, {"smiles": "O=C1Nc2ccc(Cl)cc2C(c2ccccc2Cl)=NC1O", "note": "(centres unmarked) [Lorazepam, reference compound]", "values": [{"measurement": "3H-flunitrazepam binding in vivo ED50", "setting": "benzodiazepine receptors [1]", "result": 0.2, "unit": "mg/kg"}, {"measurement": "3H-flunitrazepam binding in vitro IC50", "setting": "benzodiazepine receptors [2]", "result": 1, "unit": "ng/mL"}, {"measurement": "ED50 at 0.5 h", "setting": "[3]", "result": 0.3, "unit": "mg/kg"}, {"measurement": "induction of ataxia (more than three falls from the rod within 2 min)", "setting": "[5]; 2 mg/kg i.p. 30 min before test", "result": "induced ataxia in all animals"}, {"measurement": "ED50", "setting": "[4]", "result": 0.1, "unit": "mg/kg"}]}, {"smiles": "CCOC(=O)c1ncc2[nH]c3cccc(OC(C)C)c3c2c1C", "note": "[(CH3)2 CH, CH3, 5-isopropoxy-4-methyl-β-carboline-3-carboxylic acid ethylester]", "values": [{"measurement": "3H-flunitrazepam binding in vivo ED50", "setting": "benzodiazepine receptors [1]", "result": 0.3, "unit": "mg/kg"}, {"measurement": "3H-flunitrazepam binding in vitro IC50", "setting": "benzodiazepine receptors [2]", "result": 0.6, "unit": "ng/mL"}, {"measurement": "ED50, antagonism of benzodiazepine action on pentazole-induced seizures", "setting": "[6]", "result": 0.7, "unit": "mg/kg"}, {"measurement": "ED50 at 0.5 h", "setting": "[3]", "result": "> 100", "unit": "mg/kg"}, {"measurement": "ED50, antagonism of benzodiazepine action in motor incoordination", "setting": "[5]; against 2 mg/kg lorazepam i.p., ataxia in 50% of animals, compound 15 minutes after lorazepam", "result": 1.0, "unit": "mg/kg"}, {"measurement": "ED50", "setting": "[4]", "result": "> 100", "unit": "mg/kg"}]}, {"smiles": "CN1C(=O)CN=C(c2ccccc2)c2cc(Cl)ccc21", "note": "[Diazepam, reference compound]", "values": [{"measurement": "3H-flunitrazepam binding in vivo ED50", "setting": "benzodiazepine receptors [1]", "result": 1.5, "unit": "mg/kg"}, {"measurement": "3H-flunitrazepam binding in vitro IC50", "setting": "benzodiazepine receptors [2]", "result": 3, "unit": "ng/mL"}, {"measurement": "ED50 at 0.5 h", "setting": "[3]", "result": 3, "unit": "mg/kg"}, {"measurement": "ED50", "setting": "[4]", "result": 3, "unit": "mg/kg"}]}, {"smiles": "CCOC(=O)c1ncc2[nH]c3cccc(OC)c3c2c1CC", "note": "[CH3, CH3 CH2, 4-Ethyl-5-methoxy-β-carboline-3-carboxylic acid ethylester]", "values": [{"measurement": "3H-flunitrazepam binding in vivo ED50", "setting": "benzodiazepine receptors [1]", "result": 3.0, "unit": "mg/kg"}, {"measurement": "3H-flunitrazepam binding in vitro IC50", "setting": "benzodiazepine receptors [2]", "result": 1.4, "unit": "ng/mL"}, {"measurement": "ED50 at 0.5 h", "setting": "[3]", "result": "> 100", "unit": "mg/kg"}, {"measurement": "ED50", "setting": "[4]", "result": "> 100", "unit": "mg/kg"}]}]}
